Assay results taken from patent publication US9884816B2, “Sulforaphane-derived compounds, production method thereof and the medical, food and cosmetic use of same” (Consejo Superior De Investigaciones Científicas (CSIC), priority 2012, dated 2018).

Key:
[1] = test system: MRC-5 (fetal lung fibroblasts); test: Cytotoxicity curve, MRC-5 cell line; format: cell-based; conditions: mean ± SEM, at least 3 independent experiments
Experimental: (§1) FIG. 5. Curve of cytotoxicity of the compounds 15S, and 15R, at four different concentrations ([…]) in comparison with Sigma-Aldrich® sulphoraphane at five different concentrations ([…]) for the cell lines A-549 (human lung adenocarcinoma) and MRC-5 (fetal lung fibroblasts), showing IC50 for all the products in each of the cell lines used in the test, expressed as mean±standard error (SEM) of all the tests conducted. Each diagram represents at least 3 independent experiments and both within them and for each value of IC50, the result of statistical analysis is indicated for the t-test with the p-value. The t-test indicates whether two values have a significant difference from the statistical standpoint. A p-value above 0.05 is not regarded as statistically significant and is not represented by any symbol, a p-value below 0.05 indicates statistical significance and is indicated with an asterisk (*), and then if p is below 0.01 it is indicated with two asterisks, and with three if it is below 0.001.

[2] = test system: A-549 (human lung adenocarcinoma); test: Cytotoxicity curve, A-549 cell line; format: cell-based; conditions: mean ± SEM, at least 3 independent experiments
Experimental: as §1

Row | Compound | IC50 [1] [µM] | IC50 [2] [µM]
1 | C[S@@+]([O-])CCCCN=C=S (racemic) [SF, (Rs)-1-isothiocyanato-4-(methylsulphinyl)-butane] | 46.6 ± 2.19 | 19.6 ± 2.27
2 | C[S@+]([O-])CCOCCOCCN=C=S [SF 15Ss, (S)-(+)-8-Isothiocyanato-3,6-dioxaoctanylmethyl sulphoxide] | 58.3 ± 6.54 | 22.7 ± 0.69
3 | C[S+]([O-])CCCCN=C=S (centres unmarked) [SF Sigma ®] | 30.5 ± 2.02 | 16.5 ± 3.05
4 | (R)-(−)-8-Isocyanato-3,6-dioxaoctanylmethyl sulphoxide [SF 15Rs] | 67.3 ± 6.25 | 29.4 ± 3.89
